In ChEMBL document CHEMBL4819133, “Exploiting the HSP60/10 chaperonin system as a chemotherapeutic target for colorectal cancer” (Bioorg Med Chem, 2021) one finds IC50, CC50 and EC50 data, which are given here for eleven compounds.

The target in one data set is HSP60/HSP10 (Homo sapiens, UniProt P10809). Description: Inhibition of human mitochondrial HSP60/10-mediated refolding of the denatured malate dehydrogenase. The data set is classed as mitochondria, Mitochondria.
Data set [1] is described as follows: Cytotoxicity against human FHs74Int cells assessed as reduction in cell viability measured after 48 hrs by AlamarBlue assay. The data set is classed as cell-based. In general terms: Alamar Blue is a resazurin reagent that responds to reducing activity.
The target in data set [2] is T1, E. coli GroEL/ES (Escherichia coli, UniProt P0A6F5). Description: Inhibition of Escherichia coli GroEL/ES-mediated refolding of the denatured malate dehydrogenase. The data set is classed as protein-complex assay.
Data set [3] addresses T2, Thiosulfate sulfurtransferase (Homo sapiens, UniProt Q16762).
T2 sequence (Q16762 whole entry): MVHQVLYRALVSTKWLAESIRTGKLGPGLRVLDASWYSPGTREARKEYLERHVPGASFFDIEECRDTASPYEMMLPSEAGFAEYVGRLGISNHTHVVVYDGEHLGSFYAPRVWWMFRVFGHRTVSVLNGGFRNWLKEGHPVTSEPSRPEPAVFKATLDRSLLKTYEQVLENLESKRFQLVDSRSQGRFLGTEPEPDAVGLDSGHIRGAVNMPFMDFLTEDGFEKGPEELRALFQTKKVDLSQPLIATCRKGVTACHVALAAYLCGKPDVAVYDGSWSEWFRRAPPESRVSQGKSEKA
Description: Inhibition of refolded Rhodanese (unknown origin)-mediated conversion of cyanide to thiocyanate treated with compound after refolding of the denatured enzyme.

A short description of data set [4]: Inhibition of refolded MDH (unknown origin)-mediated oxidation of NADPH in presence of mesoxalic acid treated with compound after refolding of the denatured enzyme. Also on record: species or system Homo sapiens.
Another data set relates to HCT-116. Description: Cytotoxicity against human HCT-116 cells assessed as reduction in cell viability measured after 48 hrs by AlamarBlue assay. The data set is classed as functional, cell-based. As to conditions: HCT-116, 48 h.
Data set [5] in a line: Cytotoxicity against human THLE-3 cells assessed as reduction in cell viability measured after 48 hrs by AlamarBlue assay. As to conditions: for CC50: thle-3, 48 h; for CC50 at 48 h: THLE-3 cells. The data set is classed as cell-based.
In data set [6] the target is T1, E. coli GroEL/ES. Description: Inhibition of Escherichia coli GroEL/ES-mediated refolding of the denatured rhodanese. The data set is classed as protein-complex assay.
A further data set concerns FHC. Description: Cytotoxicity against human FHC cells assessed as reduction in cell viability measured after 48 hrs by AlamarBlue assay. The data set is classed as cell-based.
The next data set concerns HEK293. Description: (§1) Cytotoxicity against human HEK293 cells assessed as reduction in cell viability measured after 48 hrs by AlamarBlue assay. The data set is classed as cell-based. As to conditions: hek293, 48 h.
For a further data set, the system named is DLD-1. Description: Cytotoxicity against human DLD-1 cells assessed as reduction in cell viability measured after 48 hrs by AlamarBlue assay. The data set is classed as functional, cell-based. As to conditions: DLD-1, 48 h.
The subject of a further data set is HT-29. Description: Cytotoxicity against human HT-29 cells assessed as reduction in cell viability measured after 48 hrs by AlamarBlue assay. The data set is classed as functional, cell-based. To be noted: HT-29, 48 h.
Data set [7] is described as follows: as §1. As to conditions: HEK293 cells. The data set is classed as cell-based.

Sequence of HSP60/HSP10 (P10809 whole entry): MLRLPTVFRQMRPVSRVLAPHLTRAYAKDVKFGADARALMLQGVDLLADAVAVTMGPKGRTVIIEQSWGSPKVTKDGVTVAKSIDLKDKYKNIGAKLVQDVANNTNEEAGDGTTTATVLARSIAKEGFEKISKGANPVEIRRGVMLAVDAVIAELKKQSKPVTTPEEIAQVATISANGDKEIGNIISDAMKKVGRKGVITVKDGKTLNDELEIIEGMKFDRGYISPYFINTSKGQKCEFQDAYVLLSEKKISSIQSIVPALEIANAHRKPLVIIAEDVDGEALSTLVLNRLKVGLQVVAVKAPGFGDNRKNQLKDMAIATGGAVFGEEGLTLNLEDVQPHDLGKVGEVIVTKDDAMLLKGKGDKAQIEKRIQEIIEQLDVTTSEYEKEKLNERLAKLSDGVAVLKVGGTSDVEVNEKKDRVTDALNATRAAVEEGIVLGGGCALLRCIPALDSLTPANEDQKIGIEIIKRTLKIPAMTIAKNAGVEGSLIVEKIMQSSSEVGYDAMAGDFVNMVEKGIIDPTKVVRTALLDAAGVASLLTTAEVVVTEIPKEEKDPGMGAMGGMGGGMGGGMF
Sequence of HSP60/HSP10 (P61604 whole entry, further chain): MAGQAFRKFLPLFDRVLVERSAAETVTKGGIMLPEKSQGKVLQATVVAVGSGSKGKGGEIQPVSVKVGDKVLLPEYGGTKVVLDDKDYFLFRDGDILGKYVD
T1 sequence (P0A6F5 whole entry, looked up): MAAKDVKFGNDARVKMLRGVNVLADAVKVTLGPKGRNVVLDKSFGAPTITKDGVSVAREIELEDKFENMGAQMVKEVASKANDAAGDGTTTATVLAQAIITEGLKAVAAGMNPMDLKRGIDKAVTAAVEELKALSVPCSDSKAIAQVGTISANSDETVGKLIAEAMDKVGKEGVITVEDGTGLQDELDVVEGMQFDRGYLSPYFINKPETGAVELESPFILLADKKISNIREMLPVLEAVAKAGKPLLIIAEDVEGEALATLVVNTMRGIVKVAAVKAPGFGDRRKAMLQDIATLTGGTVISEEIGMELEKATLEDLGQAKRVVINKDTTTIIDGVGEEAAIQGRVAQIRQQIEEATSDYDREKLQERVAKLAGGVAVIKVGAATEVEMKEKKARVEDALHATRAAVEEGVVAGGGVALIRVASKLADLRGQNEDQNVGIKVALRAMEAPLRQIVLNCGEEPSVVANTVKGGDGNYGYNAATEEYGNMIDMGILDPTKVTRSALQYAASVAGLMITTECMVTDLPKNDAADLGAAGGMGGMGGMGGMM

What is called IC50 is the concentration needed to halve the response being measured. The term CC50 denotes the concentration that lowers cell viability or growth by half. One may read the EC50 as the concentration at which the effect is half-maximal. Turning to `COc1ccc(S(=O)(=O)Nc2ccc3oc(-c4ccc(NC(=O)C5CCN(C(C)=O)CC5)cc4)nc3c2)cc1`, the IC50 was 24 µM against HSP60/HSP10; 38 µM against E. coli GroEL/ES [2]; greater than 100 µM in data set [3]; greater than 62.5 µM in data set [4]; 61 µM on E. coli GroEL/ES [6]. The CC50 is 84 µM in data set [1], 31 µM in data set [5], greater than 100 µM in the data set with FHC and 34 µM in the data set on HEK293. Moreover, the EC50 came to 15 µM in the data set with HCT-116, 15 µM in the data set with DLD-1 and 16 µM in the data set with HT-29.

`COc1ccc(S(=O)(=O)Nc2ccc3oc(-c4ccc(NS(=O)(=O)c5cc(Br)ccc5OC)cc4)nc3c2)cc1`: the IC50 was 67 µM against HSP60/HSP10; 27 µM against E. coli GroEL/ES [2]; greater than 100 µM in data set [3]; greater than 62.5 µM in data set [4]; 22 µM at E. coli GroEL/ES [6]. For the same compound, the 50% cytotoxic concentration (CC50) in data set [1] was greater than 100 µM; in data set [5], 16 µM; with FHC it was greater than 100 µM; with HEK293, 18 µM. The figures for the EC50 with HCT-116, in the data set with DLD-1 and in the data set with HT-29 were 12 µM, 15 µM and 14 µM, respectively.

Consider `O=S(=O)(Nc1ccc(-c2nc3cc(NS(=O)(=O)c4ccc(F)cc4)ccc3o2)cc1)c1ccc(F)cc1`, for which the IC50 is 63 µM on HSP60/HSP10, greater than 100 µM in [3], greater than 62.5 µM in data set [4] and 19 µM against E. coli GroEL/ES [6]. The cytotoxic concentration (CC50) was 63 µM in [1] and 27 µM with FHC. Besides, the EC50 with HCT-116 was 12 µM; in the data set with DLD-1, 18 µM; with HT-29, 17 µM. In addition, the CC50 at 48 h came out at 22 µM in data set [5] and 31 µM in [7].

Take `Nc1ccc(S(=O)(=O)Nc2ccc(-c3nc4cc(NS(=O)(=O)c5ccc(N)cc5)ccc4o3)cc2)cc1`: the IC50 was 44 µM at HSP60/HSP10, greater than 100 µM in data set [3], greater than 62.5 µM in data set [4] and 3.1 µM against E. coli GroEL/ES [6]. Also, the cytotoxic concentration (CC50) was 53 µM in [1] and 65 µM in the data set with FHC. For the same compound, the figures for the concentration for a half-maximal effect (EC50) with HCT-116, in the data set on DLD-1 and in the data set on HT-29 were 17 µM, 47 µM and 24 µM, respectively. The CC50 at 48 h in [5] was determined as 39 µM; in data set [7] it was 63 µM.

For the compound `COc1ccc(S(=O)(=O)Nc2ccc3oc(-c4ccc(NS(=O)(=O)c5cc(F)ccc5OC)cc4)nc3c2)cc1`, the half-inhibitory concentration (IC50) is greater than 100 µM against HSP60/HSP10; 18 µM on E. coli GroEL/ES [2]; greater than 100 µM in [3]; greater than 62.5 µM in data set [4]; 30 µM against E. coli GroEL/ES [6]. Besides, the cytotoxic concentration (CC50) in [1] is greater than 100 µM; in [5], 25 µM; in the data set with FHC, greater than 100 µM; with HEK293 it was 24 µM. Moreover, the values for the EC50 in the data set with HCT-116, in the data set with DLD-1 and with HT-29 were 15 µM, 18 µM and 15 µM, respectively.

On to `O=S(=O)(Nc1ccc(-c2nc3cc(NS(=O)(=O)c4ccccc4Cl)ccc3o2)cc1)c1ccccc1Cl`, for which the 50% cytotoxic concentration (CC50) in data set [1] turned out to be 38 µM; with FHC it was 45 µM. Besides, the IC50 was 40 µM on E. coli GroEL/ES [2], greater than 100 µM in [3], greater than 62.5 µM in [4] and 43 µM against E. coli GroEL/ES [6]. Besides, the values for the concentration for a half-maximal effect (EC50) in the data set on HCT-116, in the data set on DLD-1 and in the data set on HT-29 were 12 µM, 17 µM and 15 µM, respectively. Further, the CC50 at 48 h turned out to be 25 µM in data set [5] and 46 µM in [7].

With `O=S(=O)(Nc1ccc(-c2nc3cc(NS(=O)(=O)c4ccccc4)ccc3o2)cc1)c1ccccc1`, the IC50 against HSP60/HSP10 was 86 µM; in [3], greater than 100 µM; in [4] it was greater than 62.5 µM; against E. coli GroEL/ES [6], 18 µM. Moreover, the CC50 is greater than 100 µM in data set [1] and 30 µM with FHC. The 50% effective concentration (EC50) in the data set with HCT-116 is 13 µM; with DLD-1 it was 16 µM; with HT-29 it was 16 µM. Besides, the 50% cytotoxic concentration (CC50) at 48 h in data set [5] was determined as 23 µM; in data set [7], 25 µM.

Regarding `O=S(=O)(Nc1ccc(-c2nc3cc(NS(=O)(=O)c4ccc(C(F)(F)F)cc4)ccc3o2)cc1)c1ccc(C(F)(F)F)cc1`, the IC50 against HSP60/HSP10 is 57 µM; against E. coli GroEL/ES [2] it was 19 µM; in data set [3] it was greater than 100 µM; in [4], greater than 62.5 µM; at E. coli GroEL/ES [6], 34 µM. Besides, the CC50 in data set [1] was found to be 69 µM; in the data set on FHC it was 57 µM. Besides, the 50% effective concentration (EC50) was found to be 15 µM with HCT-116, 10 µM in the data set with DLD-1 and 13 µM in the data set on HT-29. Also, the 50% cytotoxic concentration (CC50) at 48 h was 21 µM in data set [5] and 29 µM in data set [7].

For `COc1ccc(S(=O)(=O)Nc2ccc(-c3nc4cc(NS(=O)(=O)c5ccc(OC)cc5)ccc4o3)cc2)cc1`, the values for the CC50 (in data set [1]; in the data set with FHC) were 40 µM and 57 µM, respectively. For the same compound, the IC50 against E. coli GroEL/ES [2] is 30 µM; in data set [3], greater than 100 µM; in [4] it was greater than 62.5 µM; against E. coli GroEL/ES [6], 56 µM. For the same compound, the EC50 in the data set on HCT-116 was determined as 12 µM; in the data set with DLD-1, 28 µM; in the data set on HT-29 it was 40 µM. Moreover, the CC50 at 48 h in [5] turned out to be 60 µM; in data set [7], 48 µM.

Turning to `COc1ccccc1S(=O)(=O)Nc1ccc(-c2nc3cc(NS(=O)(=O)c4ccccc4OC)ccc3o2)cc1`, the IC50 on HSP60/HSP10 was 87 µM; at E. coli GroEL/ES [2], 43 µM; in data set [3] it was greater than 100 µM; in data set [4] it was greater than 62.5 µM; against E. coli GroEL/ES [6], 33 µM. Also, the CC50 in [1] was found to be 81 µM; in the data set with FHC, 74 µM. Besides, the EC50 in the data set with HCT-116 was 9.2 µM; in the data set on DLD-1, 6.6 µM; with HT-29 it was 16 µM. The results for the 50% cytotoxic concentration (CC50) at 48 h in data set [5] and in data set [7] were 48 µM and 28 µM, respectively.

For `Cc1ccc(S(=O)(=O)Nc2ccc(-c3nc4ccc(NS(=O)(=O)c5ccc(C)cc5)cc4[nH]3)cc2)cc1`, the IC50 was 79 µM against HSP60/HSP10; 24 µM at E. coli GroEL/ES [2]; greater than 100 µM in data set [3]; greater than 62.5 µM in data set [4]; 46 µM against E. coli GroEL/ES [6]. Further, the results for the cytotoxic concentration (CC50) (in [1]; in the data set with FHC) were 96 µM and greater than 100 µM, respectively. Moreover, the EC50 with HCT-116 amounted to 14 µM; in the data set with DLD-1, 25 µM; in the data set on HT-29 it was 21 µM. For the same compound, the CC50 at 48 h in data set [5] is 22 µM; in [7], 38 µM.
